Laboratory results: PubChem BioAssay AID248 (DTP/NCI, 2004)
Several values for one entry are separate records, joined by “and”; a condition that tells them apart may be missing. Identical values can stand only once. Inconclusive results and toxic doses are left out. Cut-off read from the data, not from the text of the source: active = T/C of 150% or more; inactive = T/C below 125%.

Tested on: L1210 leukemia ip in BDF1 mice, survival T/C
Assay: NCI In Vivo Anticancer Drug Screen. Data for tumor model L1210 Leukemia (intraperitoneal) in B6D2F1 (BDF1) mice
Conditions: endpoint: mean survival time, higher = longer survival
Method in brief: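 Value reflects the ratio of survival in compound-treated mice to survival in vehicle-treated controls, with both groups carrying the same transplanted tumor.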

[1] = dose: 50.0 mg/kg/injection, schedule: Q01DX009 (ip), vehicle: saline with Tween-80
[2] = dose: 100.0 mg/kg/injection, schedule: Q01DX009 (ip), vehicle: saline with Tween-80
[3] = dose: 200.0 mg/kg/injection, schedule: Q01DX009 (ip), vehicle: saline with Tween-80
[4] = dose: 50.0 mg/kg/injection, schedule: Q01DX001 (ip), vehicle: carboxymethylcellulose (CMC)
[5] = dose: 100.0 mg/kg/injection, schedule: Q01DX001 (ip), vehicle: carboxymethylcellulose (CMC)
[6] = dose: 200.0 mg/kg/injection, schedule: Q01DX001 (ip), vehicle: carboxymethylcellulose (CMC)
[7] = dose: 400.0 mg/kg/injection, schedule: Q01DX009 (ip), vehicle: saline with Tween-80
[8] = dose: 400.0 mg/kg/injection, schedule: Q01DX001 (ip), vehicle: carboxymethylcellulose (CMC)
[9] = dose: 100.0 mg/kg/injection, schedule: Q01DX001 (ip), vehicle: Klucel (hydroxypropylcellulose) (HPC)
[10] = dose: 200.0 mg/kg/injection, schedule: Q01DX001 (ip), vehicle: Klucel (hydroxypropylcellulose) (HPC)
[11] = dose: 400.0 mg/kg/injection, schedule: Q01DX001 (ip), vehicle: Klucel (hydroxypropylcellulose) (HPC)
[12] = dose: 100.0 mg/kg/injection, schedule: Q01DX001 (ip), vehicle: saline
[13] = dose: 200.0 mg/kg/injection, schedule: Q01DX001 (ip), vehicle: saline
[14] = dose: 200.0 mg/kg/injection, schedule: Q04DX002 (ip), vehicle: saline
[15] = dose: 400.0 mg/kg/injection, schedule: Q04DX002 (ip), vehicle: saline
[16] = dose: 400.0 mg/kg/injection, schedule: Q01DX001 (ip), vehicle: saline
[17] = dose: 100.0 mg/kg/injection, schedule: Q04DX003 (ip), vehicle: saline with Tween-80

Measured: T/C

CC(C(=O)C(Cc1ccccc1)c1ccccc1)C1CCC2C3C(OC=O)CC4CC(OC=O)CCC4(C)C3CC(OC=O)C12C (stereo not drawn)
inactive: dose: 12.5 mg/kg/injection, schedule: Q01DX009 (ip), vehicle: saline with Tween-80 90 % of control | dose: 25.0 mg/kg/injection, schedule: Q01DX009 (ip), vehicle: saline with Tween-80 87 % of control | [1] 90 % of control | [2] 91 % of control | [3] 88 % of control

O=Cc1[nH]c(=S)[nH]c(=O)c1Cc1cccc2ccccc12
inactive: [2] 97 % of control | [3] 101 % of control

CCCCCCCNC
inactive: [4] 99 % of control | [5] 99 % of control | [6] 96 % of control

O=[N+]([O-])c1ccc(CN=NCc2ccc(Cl)cc2Cl)c(Cl)c1
inactive: [1] 90 % of control | [2] 100 % of control | [3] 100 % of control | [7] 95 % of control

CN(C)C1c2cc(Cl)ccc2-c2c(Cl)cc(Cl)cc21 (stereo not drawn)
inactive: [4] 100 % of control | [5] 102 % of control | [6] 100 % of control | [8] 105 % of control

CC(CN1CCCC1)C(O)(Cc1ccccc1)c1ccccc1 (stereo not drawn)
inactive: dose: 25.0 mg/kg/injection, schedule: Q01DX009 (ip), vehicle: saline 95 % of control | dose: 50.0 mg/kg/injection, schedule: Q01DX009 (ip), vehicle: saline 95 % of control | dose: 100.0 mg/kg/injection, schedule: Q04DX003 (ip), vehicle: saline 92 % of control

CN(C(=O)C1(C)CC2C=CC1C2)c1ccccc1 (stereo not drawn)
inactive: [9] 100 % of control | [10] 102 % of control | [11] 97 % of control

Cc1cccc(CCSCCc2cccc(C)[n+]2[O-])[n+]1[O-]
inactive: [12] 96 % of control | [13] 92 % of control

Nc1ncnc2c1ncn2[C@H]1CC[C@@H](CO)C1
inactive: [12] 106 % of control | [13] 97 % of control

CC12C=CC(=O)C=C1CCC1C2C(O)CC2(C)C1CCC2(O)C(=O)COC(=O)CCCc1ccc(N(CCCl)CCCl)cc1 (stereo not drawn)
inactive: dose: 12.5 mg/kg/injection, schedule: Q01DX009 (ip), vehicle: Klucel (hydroxypropylcellulose) (HPC) 116 % of control | dose: 12.5 mg/kg/injection, schedule: Q04DX003 (ip), vehicle: Klucel (hydroxypropylcellulose) (HPC) 97 % of control | dose: 15.0 mg/kg/injection, schedule: Q01DX009 (ip), vehicle: saline with Tween-80 107 % of control | dose: 25.0 mg/kg/injection, schedule: Q01DX009 (ip), vehicle: Klucel (hydroxypropylcellulose) (HPC) 122 % of control | dose: 25.0 mg/kg/injection, schedule: Q04DX003 (ip), vehicle: Klucel (hydroxypropylcellulose) (HPC) 110 % of control | dose: 30.0 mg/kg/injection, schedule: Q01DX009 (ip), vehicle: saline with Tween-80 114 % of control | dose: 50.0 mg/kg/injection, schedule: Q01DX009 (ip), vehicle: Klucel (hydroxypropylcellulose) (HPC) 124 % of control | dose: 50.0 mg/kg/injection, schedule: Q04DX003 (ip), vehicle: Klucel (hydroxypropylcellulose) (HPC) 109 % of control | dose: 60.0 mg/kg/injection, schedule: Q01DX009 (ip), vehicle: saline with Tween-80 108 % of control | dose: 75.0 mg/kg/injection, schedule: Q01DX001 (sc), vehicle: steriod suspending solution 103 % of control | dose: 150.0 mg/kg/injection, schedule: Q01DX001 (sc), vehicle: steriod suspending solution 111 % of control | dose: 300.0 mg/kg/injection, schedule: Q01DX001 (sc), vehicle: steriod suspending solution 108 % of control

CC1CCCCN1C(=O)CCCCl (stereo not drawn)
inactive: dose: 100.0 mg/kg/injection, schedule: Q04DX002 (ip), vehicle: saline 111 % of control | [14] 101 % of control | [15] 88 % of control

CC(O)c1cccc([N+](=O)[O-])c1 (stereo not drawn)
inactive: [2] 104 % of control | [3] 94 % of control | [7] 90 % of control

CC(C)=NNc1cccc2cccc(N)c12
inactive: [12] 97 % of control | [13] 95 % of control | [16] 97 % of control

CCCCC(C=NCC(CCCC)(CCN1CCOCC1)c1cccc2ccccc12)(CCN1CCOCC1)c1cccc2ccccc12 (stereo not drawn)
inactive: dose: 100.0 mg/kg/injection, schedule: Q01DX009 (ip), vehicle: saline 100 % of control | dose: 200.0 mg/kg/injection, schedule: Q01DX009 (ip), vehicle: saline 96 % of control | dose: 400.0 mg/kg/injection, schedule: Q01DX009 (ip), vehicle: saline 88 % of control

S=c1[nH]c2ccccc2s1.[Pb]
inactive: [9] 94 % of control | [10] 100 % of control | [11] 100 % of control

Nc1[nH]cnc(=S)c1NC=O
inactive: dose: 100.0 mg/kg/injection, schedule: Q01DX001 (ip), vehicle: acetone 92 % of control | dose: 200.0 mg/kg/injection, schedule: Q01DX001 (ip), vehicle: acetone 92 % of control | dose: 400.0 mg/kg/injection, schedule: Q01DX001 (ip), vehicle: acetone 88 % of control

NCCCCC(N)C(=O)Nc1ccc(Cc2ccc(NC(=O)C(N)CCCCN)cc2)cc1 (stereo not drawn)
inactive: dose: 50.0 mg/kg/injection, schedule: Q01DX001 (ip), vehicle: saline 103 % of control | [12] 100 % of control

O=C1C(Br)=C(c2ccccc2)C(=O)C(Br)=C1c1ccccc1
inactive: [5] 90 % of control | [6] 92 % of control | [8] 97 % of control

[C](#[C][Sn]([c]1ccccc1)([c]1ccccc1)[c]1ccccc1)[Sn]([c]1ccccc1)([c]1ccccc1)[c]1ccccc1
inactive: dose: 100.0 mg/kg/injection, schedule: Q04DX003 (ip), vehicle: Klucel (hydroxypropylcellulose) (HPC) 94 % of control | [14] 92 % of control | dose: 200.0 mg/kg/injection, schedule: Q04DX003 (ip), vehicle: Klucel (hydroxypropylcellulose) (HPC) 95 % of control | [15] 92 % of control | dose: 400.0 mg/kg/injection, schedule: Q04DX003 (ip), vehicle: Klucel (hydroxypropylcellulose) (HPC) 111 % of control

C[C@@]1(C(=O)O)CC2C=CC1C2 (stereo partly drawn)
inactive: dose: 100.0 mg/kg/injection, schedule: Q04DX002 (ip), vehicle: Klucel (hydroxypropylcellulose) (HPC) 96 % of control | dose: 200.0 mg/kg/injection, schedule: Q04DX002 (ip), vehicle: Klucel (hydroxypropylcellulose) (HPC) 96 % of control | dose: 400.0 mg/kg/injection, schedule: Q04DX002 (ip), vehicle: Klucel (hydroxypropylcellulose) (HPC) 93 % of control

c1cc2c3c(c1)nc(CCc1nc4cccc5c4n1CCC5)n3CCC2
inactive: dose: 25.0 mg/kg/injection, schedule: Q04DX003 (ip), vehicle: saline with Tween-80 101 % of control | dose: 50.0 mg/kg/injection, schedule: Q04DX003 (ip), vehicle: saline with Tween-80 95 % of control | [17] 93 % of control and 87 % of control | dose: 400.0 mg/kg/injection, schedule: Q04DX003 (ip), vehicle: saline with Tween-80 87 % of control

CCN(CC)CCNC(=O)c1c2c(nc3ccccc13)CCCC2
inactive: [12] 103 % of control | [13] 102 % of control | [16] 98 % of control

CCN(CC)CCCC(C)Nc1nnc2c(=O)n(C)c(=O)n(C)c2n1 (stereo not drawn)
inactive: dose: 75.0 mg/kg/injection, schedule: Q04DX003 (ip), vehicle: saline 89 % of control | dose: 150.0 mg/kg/injection, schedule: Q04DX003 (ip), vehicle: saline 90 % of control | dose: 300.0 mg/kg/injection, schedule: Q04DX003 (ip), vehicle: saline 87 % of control

COC(=O)C(CCC(=O)CCl)N1C(=O)c2ccccc2C1=O (stereo not drawn)
inactive: [17] 89 % of control | dose: 200.0 mg/kg/injection, schedule: Q04DX003 (ip), vehicle: saline with Tween-80 89 % of control
